Measurements as given in PMC11728142, “A Tachyplesin Antimicrobial Peptide from Theraphosidae Spiders with Potent Antifungal Activity Against Cryptococcus neoformans” (Microorganisms, 2024).
Values after ≈ are worked out from the molar mass of the structure shown. Positions of bridges follow the written chain, without caps; N, C: chain ends. Residues, ends and D or L forms follow the SMILES beside them.

Experiments:
[1] = test system: Cryptococcus neoformans_BNCC225501; test: microbe, parasite or virus in culture
Experimental: (§1) To achieve a final cell concentration of 2 × 10^6 CFU/mL, mid-log phase cultures were diluted with a Yeast and Mold (YM) broth and then put to 96-well plates with two-fold serially diluted peptides (from 0.1 to 89.8 µM) in a 1:1 ratio.

C. neoformans [2] = test: Mice systemic infection model, fungal burden; format: in vivo, C57BL/6J female mice; details: immunocompromised mice, 8 × 10^6 CFU/mouse i.p., QS18 1, 2, 4 mg/kg i.p. 12 h after infection, read 12 h post-treatment, n = 4
Experimental: (§2) Mice systemic infection and the treatment model were performed to assess the dissemination of fungi to target organs as described by with little modifications. C57BL/6J female mice 20 ± 2 g were immunocompromised through the intraperitoneal injection of 150 mg/kg cyclophosphamide for four days prior to infection. C. neoformans was then cultured in YPDA broth media to mid-log phase. […] Fungal pellets were resuspended in the same buffer, and the optical density (OD) value was adjusted to 4 × 10^7 CFU/mL. A volume of 200 µL of the fungal solution was i.p. injected into immunocompromised mice (n = 4), a total of 8 × 10^6 colony-forming units (CFUs) injected per mouse. Twelve hours post-intraperitoneal inoculation of the fungi, treatment was administered. […] Twelve hours post-treatment, the mice were sacrificed, and blood was collected through retro-orbital bleeding. Organs (lung, liver, kidney, and spleen) were also harvested and divided into two parts. One portion was weighed and placed into a grinding tube with 1 mL of normal saline and then homogenized in a tissue grinder to assess the fungal burden, while fixation of the other portion was performed for the histopathology examination. Following a 5-fold serial dilution in normal saline, 100 µL of the homogenates were seeded on YPDA plates and incubated at 37 °C for 48 h before counting colonies.

[3] = test system: TNF-α, IL-6, IL-1β, MCP-1; test: Plasma cytokine levels of infected mice, ELISA; format: in vivo, C57BL/6J female mice; details: QS18 1, 2, 4 mg/kg i.p., n = 4
Experimental: as §2, with “One portion was weighed and placed into a grinding tube with 1 mL of normal saline and then homogenized in a tissue grinder to assess the fungal burden, while fixation of the other portion was performed for the histopathology examination. Following a 5-fold serial dilution in normal saline, 100 µL of the homogenates were seeded on YPDA plates and incubated at 37 °C for 48 h before counting colonies.” left out
Blood collected through retro-orbital bleeding was centrifuged for 25 min at 5000 rpm to isolate plasma. Following the manufacturer’s guidelines, standard enzyme-linked immunosorbent assay (ELISA) kits were used to quantify the cytokine levels of tumor necrosis factor-α (TNF-α), interleukin-6 (IL-6), interleukin--1β (IL-1β), and monocyte chemoattractant protein-1 (MCP-1) in the plasma.

[4] = test system: C. neoformans BNCC225501 biofilms; test: Two-photon laser scanning microscopy of biofilms, FDA/PI; format: cell-based, Cryptococcus neoformans; details: 0.5× to 8 × the MIC, 24 h at 37 °C
Experimental: Fluorescein diacetate (FDA) and Propidium iodide (PI) dyes were utilized to stain live and dead cells, respectively. The fungi were cultured in YPDA broth media at 37 °C to the mid-logarithmic phase. Fungal cells were centrifuged at 3500 rpm for 5 min and then washed thrice with normal saline (0.9% sodium chloride). The fungal suspension was diluted to 1 × 10^9 CFU/mL in YPDA broth media, and, then, 500 µL was added to wells in a 24-well plate. Incubation was performed for 24 h at 37 °C; then, wells were washed thrice with PBS. […] Normal saline was added to the negative control group. […] After incubation, the non-adherent cells were washed with PBS, 250 µL (10 µg/mL) of FDA dye (Solarbio, Beijing, China) was added to each well and left in the dark for 20 min, and, then, 250 µL (5 µg/mL) of PI dye (Solarbio, Beijing, China) was added and co-stained in the dark for 10 min. Microscopy observation was performed utilizing the TPLSM (A1MP+, Nikon, Tokyo, Japan) at 555 nm and 488 nm excitations for PI and FDA, respectively.

[5] = test system: C. neoformans BNCC225501 biofilm; test: Biofilm eradication assay, crystal violet; format: cell-based, Cryptococcus neoformans
Experimental: Evaluation of the peptide’s ability to eradicate C. neoformans BNCC225501 biofilms was performed by culturing and harvesting the fungal cells as described in the biofilm inhibition assay above. Incubation of the fungal solution (1 × 10^6 CFU/mL in YPDA media) was conducted in 96-well plates for 48 h at 37 °C. […] Excess stain was washed off with PBS, and 95% ethanol (100 µL) was added. Using a microplate reader, absorbance was determined at 600 nm for quantification of the percentage of biofilm eradication.

C. neoformans [6] = test: Membrane potential assay, DiSC3(5) dye; format: cell-based, Cryptococcus neoformans; details: 1×, 2×, 4× and 8× the MIC, up to 40 min, ex/em 622/670 nm
Experimental: An overnight culture of C. neoformans cells was washed thrice and re-suspended in the HEPES buffer (with 5 mM of HEPES, 20 mM of glucose and 0.1 M of KCl, pH 7.5) to achieve a cell density of 10^8 CFU/mL. The fungal suspension was then incubated with 10 µM of DiSC3(5) for 30 min at 37 °C in the dark. […] PBS was added as the negative control and amphotericin B as the positive control. The negative control PBS-treated wells were used to establish baseline fluorescence. Fluorescence intensity was measured and recorded over time for up to 40 min at excitation/emission wavelengths of 622/670 nm. An increase in fluorescence indicated membrane depolarization, which implies the disruption of membrane integrity.

C. neoformans BNCC225501 = test: Time-killing kinetics assay; format: cell-based, Cryptococcus neoformans
Experimental: C. neoformans fungi grown to mid-log phase was adjusted with normal saline to 1 × 10^5 CFU/mL. […] A volume of 10 µL of the sample was taken at each time point and diluted with sterile normal saline to 100-fold. A total of 100 µL of the dilution was seeded on YPDA media agar plates in three replicates for each concentration per time point. Plates were incubated for 18–24 h at 37 °C, and the number of viable colonies was determined to assess the rate of fungi growth.

[7] = In vivo acute toxicity test; details: mouse, in vivo, ip; mice, single intraperitoneal dose, observed up to 72 h
Experimental: (§3) The peptide was administered in decreasing dosages to the different groups of mice. The concentration was lowered after three repeats if death was immediate, and 6 mice were injected if no death occurred. Following injection, mice were examined visually for any indications of toxicity, and the times at which mice died were recorded at 12/24/48/60 and 72 h. The following signs were used to assess toxicity: hunched back, ruffled fur, poor motility, and total immobility resulting in death.

C57BL/6J male mice = test: In vivo acute toxicity test
Experimental: as §3

C. neoformans [8] = details: then 4 × MIC on C. neoformans 1 × 10^6 CFU/mL, absorbance 595 nm
Experimental: Incubation of the mixture was performed for 3 h at 37 °C. A volume of 100 µL of fresh yeast extract peptone dextrose agar (YPDA) broth media was added to the mixture followed by a further 16 h of incubation. Included as negative controls were samples containing heat-inactivated protease with no peptide but media only. The inhibition of fungal growth was detected by measuring absorbance at 595 nm with a Synergy H1 Micro plate Reader (Bio-Tek, Winooski, VT, USA). The assays were performed in three replicates.

C. neoformans [9] = test: Scanning and transmission electron microscopy; format: cell-based, Cryptococcus neoformans; details: 10× the MIC; 14 µM, 2 h at 37 °C
Experimental: C. neoformans were cultured in YPDA broth to mid-log phase and diluted with normal saline (0.9% sodium chloride) to 1 × 10^9 CFU/mL. The cultures were centrifuged at 3500 rpm for 5 min, and the supernatant was discarded. After three washes with normal saline, the fungal pellets were re-suspended in normal saline. […] At 2 h post-incubation, the suspensions were centrifuged at 3500 rpm for 5 min, the supernatant was aspirated, and the pellets were re-suspended/fixed in 1 mL of 2.5% glutaraldehyde. Fixation was performed overnight at 4 °C. Next, the samples were washed in normal saline and dehydrated in a graded series of ethanol (50%, 70%, 90%, and 100%). In the end, the pellets were placed on aluminum stubs, vacuum sputter-coated in gold, and the Hitachi S-3000N (Tokyo, Japan) SEM was used to examine the membrane morphology.
For transmission electron microscopy, the cells were cultured and harvested as described above. After dehydration, cells were embedded and stained for observation under transmission electron microscopy.

C. neoformans [10] = test: Histopathological examination of infected mice; format: in vivo, C57BL/6J female mice; details: 4 mg/kg i.p., lung, liver, spleen and kidney, 12 h post-treatment
Experimental: as §2, with “colonies. […]” for “colonies.”

chymotrypsin = details: peptide 1 mg/mL, peptide:enzyme 250:1, 5 mM CaCl2, 50 mM Tris-HCl pH 7.4, 37 °C, time points 0 to 12 h, SDS-PAGE bands
Experimental: (§4) The mixture was heated for 10 min at 95 °C to halt enzymatic reaction. A solution of 20 µL of the SDS-PAGE loading buffer (5×) was added to 80 µL of the sample, mixed by vortexing and heated for 5 min at 95 °C. SDS-PAGE analysis was performed using Omni-PAGE™Precast HEPES-Tris Gels. LL37 and colistin antibiotics were used as controls.

trypsin = details: peptide 1 mg/mL, peptide:enzyme 250:1, 5 mM CaCl2, 50 mM Tris-HCl pH 7.4, 37 °C, time points 0 to 12 h, SDS-PAGE bands
Experimental: as §4

[11] = test system: Cryptococcus neoformans_ATCC32045; test: microbe, parasite or virus in culture
Experimental: as §1

Candida auris_55 = test: microbe, parasite or virus in culture
Experimental: as §1

Candida auris_84 = test: microbe, parasite or virus in culture
Experimental: as §1

[12] = test system: Candida albicans_ATCC10231; test: microbe, parasite or virus in culture
Experimental: as §1

[13] = broth microdilution, YM broth, 2 × 10^6 CFU/mL, 24 h at 37 °C, lowest concentration that fully inhibited growth

CC(C)[C@@H]1NC(=O)[C@H](CCCCN)NC(=O)[C@H](Cc2ccccc2)NC(=O)[C@@H](NC(=O)[C@@H](N)CCC(N)=O)CSSC[C@@H](C(=O)N[C@@H](CO)C(=O)N[C@@H](CCCNC(=N)N)C(=O)N[C@@H](CO)C(N)=O)NC(=O)[C@H](CCCCN)NC(=O)[C@H]([C@@H](C)O)NC(=O)[C@H](Cc2ccccc2)NC(=O)[C@@H]2CSSC[C@H](NC1=O)C(=O)N[C@@H](Cc1ccccc1)C(=O)N[C@@H](CCCNC(=N)N)C(=O)N[C@@H](CCCCN)C(=O)N[C@@H](CCCNC(=N)N)C(=O)N2 [QS18] (H-QCFKVCFRKRCFTKCSRS-NH2; disulfide 2-15, 6-11; N-terminus and C-terminus assumed)
MIC times lower than that of fluconazole ([1]; oxidized QS18 compared with fluconazole): approximately fourteen
fungal burden (CFU) in lung, liver, kidney, spleen and blood (C. neoformans [2]): significant suppression of fungi dissemination to target organs
plasma IL-1β, IL-6, TNF-α and MCP-1 [3]: dose-dependent reductions in these inflammatory markers
viability of biofilm cells, PI/FDA fluorescence [4]: decreased dose-dependently
eradication of preformed biofilms ([5]; 1 × MIC, 48 h preformed biofilm, crystal violet OD600): up to 65%
eradication of biofilms ([5]; sub-MIC levels): over 50%
DiSC3(5) fluorescence (membrane depolarization) (C. neoformans [6]): significant increase in fluorescence
time to no fungal growth (C. neoformans BNCC225501; 5× the MIC, 1 × 10^5 CFU/mL, 37 °C, colony count): 120 min
time to kill fungi (C. neoformans BNCC225501; C. neoformans BNCC 225501, as worded in the discussion): within an hour
LD50 at 72 h [7]: 30 mg/kg
LD50 i.p. compared to intravenous administration (C57BL/6J male mice): two-fold
acute toxicity observation (C57BL/6J male mice; intravenous, 10 mg/kg, over 72 hours): no signs of toxicity or death
intravenous toxicity (C57BL/6J male mice; intravenous, 20 mg/kg and 40 mg/kg): lethal effect
antifungal activity after chymotrypsin exposure (C. neoformans [8]; 2 h with chymotrypsin (250:1) at 37 °C): maintained its activity
antifungal efficacy after trypsin exposure (C. neoformans [8]; 2 h with trypsin (250:1) at 37 °C): reduced antifungal efficacy
cell morphology by SEM and TEM (C. neoformans [9]): leaked cytoplasmic contents, as well as irregular cell morphology with shrunken cell surfaces
tissue morphology, H&E staining (C. neoformans [10]): near-normal tissue morphology
proteolytic stability with chymotrypsin (chymotrypsin): remained stable in chymotrypsin even after 12 h of incubation
proteolytic stability with trypsin (trypsin): complete degradation after 1 h

C[C@@H]1[C@H](O)[C@@H](C)/C=C/C=C/C=C/C=C/C=C/C=C/C=C/[C@H](O[C@@H]2O[C@H](C)[C@@H](O)[C@H](N)[C@@H]2O)C[C@@H]2O[C@](O)(C[C@@H](O)C[C@@H](O)[C@H](O)CC[C@@H](O)C[C@@H](O)CC(=O)O[C@H]1C)C[C@H](O)[C@H]2C(=O)O [Amphotericin B, amphotericin B, reference compound]
MIC ([11]; Cryptococcus, 24 h): 3.4 µM (≈ 3.14 µg/mL)
MIC (Candida auris_55; Candida, 24 h): 1.7 µM (≈ 1.57 µg/mL)
MIC (Candida auris_84; Candida, 24 h): 0.8 µM (≈ 0.739 µg/mL)
MIC ([1]; Cryptococcus, 24 h): 1.7 µM (≈ 1.57 µg/mL)
MIC ([12]; Candida, 24 h): ≤ 0.4 µM

CC(C)[C@H](NC(=O)[C@H](CCCCN)NC(=O)[C@H](Cc1ccccc1)NC(=O)[C@H](CS)NC(=O)[C@@H](N)CCC(N)=O)C(=O)N[C@@H](CS)C(=O)N[C@@H](Cc1ccccc1)C(=O)N[C@@H](CCCNC(=N)N)C(=O)N[C@@H](CCCCN)C(=O)N[C@@H](CCCNC(=N)N)C(=O)N[C@@H](CS)C(=O)N[C@@H](Cc1ccccc1)C(=O)N[C@H](C(=O)N[C@@H](CCCCN)C(=O)N[C@@H](CS)C(=O)N[C@@H](CO)C(=O)N[C@@H](CCCNC(=N)N)C(=O)N[C@@H](CO)C(=O)O)[C@@H](C)O [QS18red] (H-QCFKVCFRKRCFTKCSRS-OH)
MIC [11, 13]: ≥ 89.8 µM
MIC (Candida auris_55; [13]): > 89.8 µM
MIC (Candida auris_84; [13]): 44.9 µM (≈ 100 µg/mL)
MIC [1, 13]: 89.8 µM (≈ 200 µg/mL)
MIC [12, 13]: > 89.8 µM
proteolytic stability with chymotrypsin (chymotrypsin): faint initial band that disappeared after 15 min
proteolytic stability with trypsin (trypsin): no bands observed even at t = 0 min
